In this assay the target is T1, PRKCB1 (PKC beta I) (Homo sapiens, UniProt P05771).
T1 construct: purchased Thermo Fisher Scientific (Life Technologies) SelectScreen
Put plainly: SelectScreen Z'LYTE. The class given is biochemical. An outline of the steps:
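NU5455 was profiled across the SelectScreen Broad panel of kinase activity and binding assays. Z'LYTE reactions such as CSF1R ran at apparent Km ATP, while the Adapta CAMK1 assay used ATP listed as 10. Values are given as percent.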

This note sets out measurements from article PMC6934184, “Selective DNA-PKcs inhibition extends the therapeutic index of localized radiotherapy and chemotherapy” (The Journal of Clinical Investigation, 2019).

T1 sequence (P05771 whole entry): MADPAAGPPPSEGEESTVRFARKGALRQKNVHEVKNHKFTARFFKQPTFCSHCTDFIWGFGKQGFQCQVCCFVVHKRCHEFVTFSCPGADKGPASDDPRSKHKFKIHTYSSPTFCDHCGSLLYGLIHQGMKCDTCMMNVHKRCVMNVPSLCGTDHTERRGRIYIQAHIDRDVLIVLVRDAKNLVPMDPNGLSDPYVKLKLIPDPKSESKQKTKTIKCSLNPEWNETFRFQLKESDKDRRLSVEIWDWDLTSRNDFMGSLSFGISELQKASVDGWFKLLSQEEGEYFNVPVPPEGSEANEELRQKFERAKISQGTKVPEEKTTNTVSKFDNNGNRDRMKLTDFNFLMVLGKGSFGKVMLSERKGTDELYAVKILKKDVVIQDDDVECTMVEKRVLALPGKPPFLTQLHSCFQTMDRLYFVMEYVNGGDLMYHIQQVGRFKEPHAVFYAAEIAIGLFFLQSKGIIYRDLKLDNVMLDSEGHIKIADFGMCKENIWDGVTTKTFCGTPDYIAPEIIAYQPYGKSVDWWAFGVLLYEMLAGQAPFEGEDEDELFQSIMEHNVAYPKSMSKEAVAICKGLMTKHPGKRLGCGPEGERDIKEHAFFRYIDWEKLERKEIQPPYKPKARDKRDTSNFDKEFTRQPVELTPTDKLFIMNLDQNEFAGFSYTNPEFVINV

For `CN(C(=O)CN1CCOCC1)c1ccc2sc3c(-c4cccc5c(=O)cc(N6CC7CCC(C6)O7)oc45)cccc3c2c1` [NU5455], the inhibition at 1 µM is -0.7%.

By inhibition is commonly meant the relative decrease from the control value, in per cent.
